Assay [1] relates to zebrafish intersegmental vessels. The assay is described as follows: Quantification of intersegmental vessel number in zebrafish. The class given is in vivo. Particulars: for inhibition of developmental angiogenesis of intersegmental vessels (number of intersegmental vessels): 10 μM, from 6 hpf; for dose-dependent inhibition of development of intersegmental vessels: decreasing doses 10, 7.5, 5 and/or 1 μM; for inhibition of the number of intersegmental vessels that develop: 5 μM. The protocol: […] Larvae were manually dechorionated, euthanised, and fixed in 4% PFA at 4° C. overnight before analysis. The larvae were then washed with PBS and transferred to depression slides for observation under epi-fluorescence in an Olympus SZX16 fluorescent microscope. The number of intersegmental vessels was counted and the average number was graphed for each drug.
Larvae were manually dechorionated, euthanised, and fixed in 4% PFA at 4° C. overnight before analysis. The larvae were then washed with PBS and transferred to depression slides for observation under epi-fluorescence in an Olympus SZX16 fluorescent microscope. The number of intersegmental vessels was counted and the average number was graphed for each drug.

Assay [2] has as its system human SW480 colorectal cancer cells. Put plainly: Proliferation / cell number of SW480 cells (crystal violet). The class given is cell-based. As to conditions: 10 μM, by 96 hours. The protocol: Cells were maintained in RPMI media supplemented with 10% foetal calf serum, penicillin (100 U/ml), streptomycin (100 μg/ml) and amphotericin B (4 μg/ml). A total of 5,000 cells were seeded per well in 96 well plates and left to incubate for 24 hours. The cells were washed in PBS and the media was replaced with solutions containing 10 μM of 5-fluorouracil (5FU), 4H, 11A or 11C. […] At each designated time point, the media was disposed and the cells washed with PBS. The cells were fixed with 1% glutaraldehyde for 20 minutes and then stained with crystal violet for 30 minutes. The plates were blotted and dried overnight. The cells were resuspended with 1% TritonX-100 and shaken for 15 minutes. The absorbance was read on a spectrophotometer at 550 nm.

In assay [3] the test system is explants cultures of human colorectal cancers. The assay is described as follows: Angiogenic/inflammatory factor secretion from human colorectal tumour explants (ELISA, multiplex). It is filed as cell-based. Particulars: 10 μM, 72 hours; n=40 patients. The protocol:
Human colorectal tumour samples were taken directly from the pathology laboratory after surgery once adequate material was taken for diagnostic testing. The tumour samples were washed and stored in DMSO/tumour conditioning media (TCM). The samples were snap-frozen in liquid nitrogen and stored at −80° C. until compound testing was performed. Prior to compound testing, the tumours were thawed and incubated in fresh TCM for 24 hours. The explants were then treated with 4H, 11A and 11C at […] concentrations for 72 hours. The TCM solutions were collected and stored at −20° C. and the remaining tumour explants were snap-frozen in liquid nitrogen and stored at −80° C. Proteins were extracted from the explants using a nuclear RIPA buffer containing PMSF, sodium orthovandate and protease inhibitors. The explants were homogenised in a PreCellys™ machine. The total protein contents were determined from the resulting lysates using the BCA assay™. […] The secretion of angiogenic cytokines was quantified using sandwich ELISA (DuoSet, R&D) for VEGF, ENA-78, MCP-1 and GROα and a multiplex assay (MSD) was used for the inflammatory cytokines: IL-13, TNF, IL-6 and IL-8. The secretion data were normalised according to the tumour sample's protein content.
(In general: An ELISA detects its analyte on a solid surface through an enzyme-linked reagent.)

Assay [4] concerns zebrafish hyaloid vasculature. The assay is described as follows: Quantification of primary hyaloid vasculature branch number in Tg(fli1:EGFP) zebrafish. It is filed as in vivo. As to conditions: for inhibition of developmental angiogenesis of the hyaloid vasculature (number of primary hyaloid vessels): typically 10 μM or 5 μM, from 24 hpf, vs DMSO control. The protocol: (§1) All experiments were carried out under ethical approval granted by the UCD animal research ethics committee. Tg(fli1:EGFP) zebrafish were maintained according to standard procedures on a 14 hr light/10 hr dark cycle at 28° C. Embryos were obtained by natural spawning and developmental stages established by time and morphological criteria. […] Larvae were euthanised, and fixed in 4% PFA at 4° C. overnight before analysis.
Overall patterning of the vasculature (fin, gut and intersegmental vessels) was examined for abnormalities. Right lenses were dissected from the larvae and transferred to depression slides for observation under epi-fluorescence in the Olympus SZX16. Patterning of the hyaloid vessels on the treated larval lenses was compared to DMSO controls and the archetypal pattern previously described (Alvarez et al., 2007; Alvarez et al., 2009).
as §1, with “analysis. Lenses were dissected from the larvae and transferred to depression slides for observation under epi-fluorescence in the Olympus SZX16. Patterning of the hyaloid vessels on the treated larval lenses was compared to DMSO controls and the archetypal pattern previously described (Alvarez et al., 2007; Alvarez et al., 2009).” for “analysis.”

“Also recorded” adds a separate entry of the source.

In the case of `Cc1ccc(N2C(=O)CC(NNC(=O)c3ccccc3)C2=O)c(C)c1` (stereo not drawn) [Compound 4H, N′-[1-(2,4-dimethylphenyl)-2,5-dioxo-3-pyrrolidinyl]benzohydrazide], in assay [1], the “inhibition of developmental angiogenesis of intersegmental vessels (number of intersegmental vessels)” value (shortened to “inhibition … (number of intersegmental vessels)”) is listed as “significant inhibition; also recorded: inhibit developmental angiogenesis of zebrafish intersegmental vessels in a statistically significant manner” and the “dose-dependent inhibition of development of intersegmental vessels” value (from here on “dose-dependent inhibition”) is listed as “dose-dependent effect”. Further, the “cell number compared to control” value in assay [2] is on record as “did not significantly reduce cell number”. Besides, in assay [3], the “levels of ENA-78 secreted” value is given as “significantly reduced”, the “levels of GRO-α secreted” value is “significantly reduced”, the “levels of IL-6 secreted” value is on record as “significantly reduced” and the “levels of IL-8 secreted” value is recorded as “significantly reduced”. In addition, in assay [3], the “levels of MCP-1 secreted” value is “significantly reduced; also recorded: significant effects” and the “levels of VEGF secreted” value is recorded as “significantly reduced; also recorded: significant effects”.
For the compound “(5-bromo-N′-[2-(trifluromethyl)benzylidene]-2-furohydrazide) [Compound 11A]”, in assay [1], the “inhibition of the number of intersegmental vessels that develop” value is on record as “significant inhibition”, the “inhibition … (number of intersegmental vessels)” value is recorded as “significant inhibition; also recorded: inhibit developmental angiogenesis of zebrafish intersegmental vessels in a statistically significant manner” and the “dose-dependent inhibition” value is “dose-dependent effect”. Further, the “cell number compared to control” value in assay [2] is listed as “did not significantly reduce cell number”. Also, in assay [3], the “levels of ENA-78 secreted” value was “significantly reduced”; the “levels of GRO-α secreted” value is given as “significantly reduced”; the “levels of IL-1β secreted (printed IL-13, IL-1)” value is “significantly reduced”; the “levels of IL-8 secreted” value is “significantly reduced”. Further, in assay [3], the “levels of MCP-1 secreted” value is recorded as “significantly reduced; also recorded: significant effects”, the “levels of TNFα secreted” value was “significantly reduced” and the “levels of VEGF secreted” value is reported as “significantly reduced; also recorded: significant effects”.
As for `O=c1[nH]cc(F)c(=O)[nH]1` [5-fluorouracil, reference compound], the “cell number, % of the control” value in assay [2] stood at 60%.
As for `Cl.Oc1cccc(C=Cc2ccc3ccccc3n2)c1` [Compound 11B_CC2_HCl, 3-(2-Quinolin-2-yl-vinyl)-phenol HCl salt], the “inhibition of developmental angiogenesis of the hyaloid vasculature (number of primary hyaloid vessels)” value in assay [4] is recorded as “inhibit developmental angiogenesis of the zebrafish hyaloid vasculature in a statistically significant manner”. Further, in assay [1], the “inhibition … (number of intersegmental vessels)” value is reported as “inhibit developmental angiogenesis of zebrafish intersegmental vessels in a statistically significant manner”.
`O=C(C=Cc1ccc2c(c1)OCO2)NCc1cccnc1` [Compound 11C]: the “inhibition of the number of primary hyaloid vessels that develop” value in assay [4] (10 μM, n>20) is recorded as “significant inhibition”. In assay [4], the “inhibition of developmental angiogenesis of the hyaloid vasculature (number of primary hyaloid vessels)” value is recorded as “inhibit developmental angiogenesis of the zebrafish hyaloid vasculature in a statistically significant manner”. Moreover, in assay [1], the “inhibition of the number of intersegmental vessels that develop” value is “significant inhibition”, the “inhibition … (number of intersegmental vessels)” value is “significant inhibition; also recorded: inhibit developmental angiogenesis of zebrafish intersegmental vessels in a statistically significant manner” and the “dose-dependent inhibition” value was “dose-dependent effect”. Also, the “cell number compared to control” value in assay [2] is recorded as “did not significantly reduce cell number”. For the same compound, in assay [3], the “levels of ENA-78 secreted” value is recorded as “significantly reduced”, the “levels of GRO-α secreted” value is given as “significantly reduced”, the “levels of IL-6 secreted” value is on record as “significantly reduced” and the “levels of IL-8 secreted” value is given as “significantly reduced”. Moreover, in assay [3], the “levels of MCP-1 secreted” value is recorded as “significantly reduced; also recorded: significant effects”, the “levels of TNFα secreted” value is “significantly reduced” and the “levels of VEGF secreted” value was “significant effects”.

For the origin of these results see patent US9815788B2, “Anti-angiogenic compounds” (University College Dublin National University of Ireland, …, priority 2012, dated 2017).
